Experimental data reported in patent publication US11413349B2, “Green methodology to create polymeric nanocarriers containing hydrophilic low molecular-weight drugs and providing a very high drug loading and a very high prolonged release” (UNIVERSIDAD DE CHILE, priority 2019, dated 2022).
Read-outs that look alike come from different tables or passages of the source.

What was measured:
[1] = Diafiltration study of kinetically and thermodynamically bound drug; assay type: physicochemical
Description: Diafiltration studies were carried out to determine the fraction of amitriptyline (AMT) that was kinetically or thermodynamically bound to poly(sodium 4-styrenesulfonate (PSS) as the nanoparticle. For this study, diafiltration was been modeled as a two-compartment system, where a continuous liquid supply from the donor chamber (reservoir) is kept, maintaining a constant volume in the diafiltration cell. The unit used for diafiltration analyses consisted of a diafiltration cell, a regenerated cellulose membrane, a reservoir, a […], and a pressure source. […] The volume in the filtration cell was kept constant during the experiment, by creating a continuous flux of liquid through the diafiltration cell, from the reservoir to the collector tube. […] A total of 8 samples (approx. 5 mL) were collected and AMT concentration in each sample was determined by spectrophotometry. Subsequently, the thermodynamically bound (TB) and kinetically bound (KB) fractions were determined as follows: TB=v(km-j)/km KB=u-um The parameters v and u represent the initial fraction of AMT thermodynamically bound to the particles, thus in equilibrium, and the fraction bound to the nanocarriers whose release is kinetically controlled, respectively. […] A total of 8 samples (approx. 5 mL) were collected and the concentration of the interest species in each sample was determined by spectrophotometry. […]

[2] = In vitro drug release by dialysis; assay type: physicochemical; conditions: AMT/PSS n+/n−=0.60, dialysis, pH=7 and 37° C., 20 days
Description: The in vitro drug release of amitriptyline (AMT) from poly (sodium 4-styrenesulfonate (PSS) was evaluated using a dialysis method. Briefly, 5 mL of AMT/PSS (n+/n−=0.60) was transferred to a dialysis membrane. The membrane was immersed in 95 mL of Milli-Q water at pH 7 and kept at 37° C. and 100 rpm in an orbital shaker. The experiment was carried out for 20 days. Aliquots (500 μL) of the solution were withdrawn at certain time intervals and replaced with an equal volume of fresh Milli-Q water. The amount of released AMT was determined by measuring the absorbance of each aliquot at 239 nm. The standard curve of AMT in water was linear (R2>0.997) in the range of concentrations between 7×10^−5 M and 7×10^−7 M (molar extinction coefficient was 12712 M^−1 cm^−1). Blank experiments dialyzing free AMT were carried out at the same conditions.
i) Dialysis: 5 mL of HALMD/PSS formulations were added in a dialysis bag (MWCO 10 kDa, ThermoScientific, USA). The dialysis system was immersed in 95 mL of Milli-Q water at pH 7 and kept at 37° C., and 100 rpm in an orbital shaker (LSI-3016R, LabTech, Daihan LabTech, Kyonggi-Do, Korea). […] The amount of released HALMD (CQ, PMZ and CPM) was determined by measuring the absorbance of each aliquot by spectrophotometry (Agilent 8453 spectrophotometer, USA).

[3] = cited from earlier work
[4] = cited from earlier work; remark: listed apart in the source

CN(C)CCC=C1c2ccccc2CCc2ccccc21 [AMT, amitriptyline]
drug molecules not subjected to equilibrium with the bulk (release kinetically controlled) ([1]; AMT/PSS formulations): more than 80% | release of AMT [2]: ≤ 16.5% | release ([3]; from polyvinyl alcohol-based beads, first stage of the experiment (Ahnfelt et al)): > 80%

CN(C)CCC(c1ccc(Cl)cc1)c1ccccn1 (centres unmarked) [Chlorpheniramine]
drug association attributed to kinetic binding ([1]; HALMD/PSS NPs): ≈ 50% | pKa [4]: 4.0 | pKa ([4]; second value): 9.4

COc1cccc2c1C(=O)c1c(O)c3c(c(O)c1C2=O)C[C@@](O)(C(=O)CO)C[C@@H]3O[C@H]1C[C@H](N)[C@H](O)[C@H](C)O1 [doxorubicin]
initial drug release ([3]; poly(N-isopropylacrylamide)-based thermosensitive hydrogel (Chen et al)): 40%

CN(C)CCCN1c2ccccc2CCc2ccccc21 [imipramine]
burst release ([3]; from calcium-alginate gel beads, 1-2 h (Tomida et al)): ≈ 80%
